Laboratory results reported in patent US8143259B2, “Cold menthol receptor antagonists” (Janssen Pharmaceutica, NV, priority 2008, dated 2012).
Where “and” joins values, the source holds several entries; their conditions need not be identical. Equal values may be shown once.

Biological target: T1, canine TRPM8 (Canis lupus familiaris, UniProt Q1A7N1)
T1 construct: expressed in transfected cells
Assay: In Vitro Canine TRPM8 Functional Assay (Ca2+ fluorescence, icilin activation)
Type: cell-based
Details: for inhibition at 0.5 µM: HEK293, 0.5 μM compound; for inhibition at 0.5 µM / % Inh @ 0.2 μM / inhibition at 0.2 µM / % Inh @ 0.5 μM / inhibition at 1 µM / % Inh @ 1 μM: canine TRPM8 HEK293, icilin; for IC50: HEK293 cells stably expressing canine TRPM8, icilin activation, Ca2+ fluorescence; for % Inh @ 0.2 μM: 0.2 μM compound; for inhibition at 0.2 µM: HEK293, 0.2 μM compound; for % Inh @ 0.5 μM: 0.5 μM compound; for inhibition at 1 µM: HEK293, 1 μM compound; for % Inh @ 1 μM: 1 μM compound
Description: The functional activity of compounds of the formula (I) was determined by measuring changes in intracellular calcium concentration using a Ca^2+-sensitive fluorescent dye. The changes in fluorescent signal were monitored by a fluorescence plate reader, either a FLIPR™ (Molecular Devices) or FDSS (Hamamatsu). Increases in intracellular Ca^2+ concentration were readily detected upon activation with icilin.
HEK293 cells stably expressing canine TRPM8 were routinely grown as monolayers in Dulbecco's minimum essential medium supplemented with 10% FBS, 2 mM L-glutamine, 100 units/mL penicillin, 100 ug/mL streptomycin and 400 μg/mL G418. Cells were maintained in 5% CO2 at 37° C. At 24 hrs prior to assay, cells were seeded in black wall, clear-base poly-D-lysine coated 384-well plates (BD Biosciences, NJ, USA) at a density of 5,000 cells per well in culture medium and grown overnight in 5% CO2 at 37° C. On assay day, growth media was removed and cells were loaded with Calcium 3 Dye (Molecular Devices) for 35 min at 37° C., under 5% CO2 and then for 25 min at room temperature and atmosphere. Subsequently, cells were tested for agonist-induced increases in intracellular Ca^2+ levels using FLIPR™ or FDSS. Cells were challenged with compounds of the formula (I) (at varying concentrations) and intracellular Ca^2+ was measured for 5 min prior to the addition of icilin to all wells to achieve a final concentration that produces approximately an 80% maximal response.
Maximal fluorescence intensity (FI) achieved upon addition of icilin was exported from the FLIPR or FDSS software and further analyzed using GraphPad Prism 3.02 (Graph Pad Software Inc., CA, U.S.A.). Basal FI was subtracted prior to normalizing data to percent of maximal response. Curves were generated using the average of quadruplicate wells for each data point, were analyzed using nonlinear regression of either sigmoidal dose response or sigmoidal dose response (variable slope).

T1 sequence (Q1A7N1 1-1104): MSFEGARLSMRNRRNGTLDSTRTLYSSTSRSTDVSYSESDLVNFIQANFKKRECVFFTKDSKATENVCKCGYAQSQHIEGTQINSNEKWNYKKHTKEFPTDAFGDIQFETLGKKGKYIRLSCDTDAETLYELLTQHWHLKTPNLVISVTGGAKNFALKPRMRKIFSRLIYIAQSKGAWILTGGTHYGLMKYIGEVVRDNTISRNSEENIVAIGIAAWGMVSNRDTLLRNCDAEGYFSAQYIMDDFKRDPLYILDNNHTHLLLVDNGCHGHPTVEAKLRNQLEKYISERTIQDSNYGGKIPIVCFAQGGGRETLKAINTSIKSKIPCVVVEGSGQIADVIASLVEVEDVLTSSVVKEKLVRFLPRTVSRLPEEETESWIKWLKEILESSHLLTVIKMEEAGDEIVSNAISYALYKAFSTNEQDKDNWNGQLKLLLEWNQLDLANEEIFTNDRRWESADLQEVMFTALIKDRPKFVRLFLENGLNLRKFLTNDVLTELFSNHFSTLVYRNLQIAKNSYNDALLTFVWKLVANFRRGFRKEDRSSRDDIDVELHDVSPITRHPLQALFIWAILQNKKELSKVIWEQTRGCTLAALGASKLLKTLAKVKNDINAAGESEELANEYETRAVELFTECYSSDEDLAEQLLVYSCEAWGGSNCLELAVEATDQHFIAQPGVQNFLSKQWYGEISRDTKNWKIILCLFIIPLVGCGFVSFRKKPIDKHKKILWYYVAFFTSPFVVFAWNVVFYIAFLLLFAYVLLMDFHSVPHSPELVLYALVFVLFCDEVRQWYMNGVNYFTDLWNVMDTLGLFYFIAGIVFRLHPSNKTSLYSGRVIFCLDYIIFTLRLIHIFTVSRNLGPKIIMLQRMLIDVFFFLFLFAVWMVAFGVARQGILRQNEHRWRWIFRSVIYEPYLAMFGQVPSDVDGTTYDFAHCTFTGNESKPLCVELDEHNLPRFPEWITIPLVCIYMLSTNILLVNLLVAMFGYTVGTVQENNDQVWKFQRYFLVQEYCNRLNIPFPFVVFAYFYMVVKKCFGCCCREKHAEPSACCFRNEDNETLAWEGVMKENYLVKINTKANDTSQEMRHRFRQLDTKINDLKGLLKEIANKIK

Structure (SMILES) | IC50 | % Inh @ 0.5 μM (0.5 µM) [%] | further results
O=C(C(Nc1ccccc1)c1cccnc1)N1Cc2ccccc2C1 (racemic) [Cpd 215] | – | – | % Inh @ 0.2 μM: 18%
O=C(C(Nc1ccccc1)c1ccccn1)N1Cc2ccccc2C1 (racemic) [Cpd 216] | – | – | % Inh @ 0.2 μM: 32%
O=C(C(Nc1ccccc1)c1ccccn1)N1CCCC1c1ccccc1F (racemic) [Cpd 218] | – | – | % Inh @ 0.2 μM (0.2 µM): 49%
Cn1cc(C(Nc2ccccc2F)C(=O)N2CCCC2c2ccccc2F)c2ccccc21 (racemic) [Cpd 250] | – | – | % Inh @ 0.2 μM: 25%
O=C(C(Nc1ccccc1F)c1ccc(Br)cc1)N1CCCC1c1cccnc1 (racemic) [Cpd 269] | – | – | % Inh @ 0.2 μM: 47%
O=C(C(Nc1ccccc1F)c1ccc2c(c1)CCO2)N1CCCC1c1cccnc1 (racemic) [Cpd 282] | – | – | % Inh @ 0.2 μM: 17%
CN1CCN(NC(=O)[C@H](Nc2ccccc2)c2ccc(C(C)(C)C)cc2)[C@H](c2ccccc2)C1 (relative stereo) [Cpd 56, (2RS*)-2-(4-tert-Butyl-phenyl)-N-[(2RS*)-4-methyl-2-phenyl-piperazin-1-yl]-2-phenylamino-acetamide] | – | – | % Inh @ 0.5 μM: 26%
CC(C)(C)c1ccc(C(Nc2ccccc2)C(=O)N2CCCC2c2ccccc2Cl)cc1 (single isomer, unassigned) [Cpd 1] | 313 nM | – | inhibition at 1 µM: 101%
CC(C)(C)c1ccc(C(Nc2ccccc2)C(=O)N2CCCC2c2ccc(Cl)cc2)cc1 (single isomer, unassigned) [Cpd 7] | 636 nM | – | % Inh @ 1 μM: 89.12%
CC(C)(C)c1ccc(C(Nc2ccccc2)C(=O)N2CCCC2c2cccc(Cl)c2)cc1 (single isomer, unassigned) [Cpd 8] | 778 nM | – | inhibition at 1 µM: 86.6%
CC(C)(C)c1ccc(C(Nc2ccccc2)C(=O)N2CCCC2c2cccc(Cl)c2)cc1 (single isomer, unassigned) [Cpd 9] | 161 nM | – | % Inh @ 1 μM: 102.98%
CC(C)(C)c1ccc(C(Nc2ccccc2)C(=O)N2CCC[C@H]2CNc2ccccc2)cc1 (single isomer, unassigned) [Cpd 10] | 517 nM | – | inhibition at 1 µM: 102%
O=C(C(Nc1ccccc1)c1ccc(C(F)(F)F)cc1)N1CCCC1c1ccccc1Cl (single isomer, unassigned) [Cpd 21] | 175 nM | – | inhibition at 0.5 µM: 103%
O=C(C(Nc1ccccc1)c1ccc(C(F)(F)F)cc1)N1CCCC1c1ccccc1Cl (single isomer, unassigned) [Cpd 22] | 378 nM | 102.36 | –
O=C(C(Nc1ccccc1)c1ccc(C(F)(F)F)cc1)N1CCCC1c1ccccc1F (single isomer, unassigned) [Cpd 47] | 200 nM | 99.791 | –
O=C(C(Nc1ccccc1)c1ccc(C(F)(F)F)cc1)N1CCCC1c1ccccc1F (single isomer, unassigned) [Cpd 48] | 219 nM | 85.869 | –
O=C(C(Nc1ccccc1)c1ccc(C(F)(F)F)cc1)N1CCCC1c1ccccc1Cl (single isomer, unassigned) [Cpd 61] | 168 nM | 103.2 | –
O=C(C(Nc1ccccc1F)c1ccc(Cl)cc1)N1CCCC1c1ccccc1F (single isomer, unassigned) [Cpd 157] | 146 nM | – | inhibition at 0.5 µM: 93%
O=C(C(Nc1ccccc1F)c1ccc(Br)cc1)N1CCCC1c1ccccc1F (single isomer, unassigned) [Cpd 159] | 109 nM and 38 nM | – | inhibition at 0.2 µM: 97%; inhibition at 0.5 µM: 94%
O=C(C(Nc1ccccc1F)c1ccc(Br)cc1)N1CCCC1c1ccccc1F (single isomer, unassigned) [Cpd 160] | 39 nM and 13 nM | 95 | % Inh @ 0.2 μM (0.2 µM): 87%
O=C(C(Nc1c(F)cccc1F)c1ccc(Br)cc1)N1CCCC1c1ccccc1F (single isomer, unassigned) [Cpd 161] | 63 nM and 36 nM | – | inhibition at 0.2 µM: 98%; inhibition at 0.5 µM: 93%
O=C(C(Nc1cccc(F)c1F)c1ccc(Cl)cc1)N1CCCC1c1ccccc1F (single isomer, unassigned) [Cpd 163] | 145 nM | – | inhibition at 0.5 µM: 94%
O=C(C(Nc1cccc(F)c1F)c1ccc(Cl)cc1)N1CCCC1c1ccccc1Cl (single isomer, unassigned) [Cpd 165] | 162 nM | – | inhibition at 0.5 µM: 99%
O=C(C(Nc1ccccc1F)c1ccc(C(F)(F)F)cc1)N1CCCC1c1cccc(F)c1 (single isomer, unassigned) [Cpd 185] | 150 nM | – | inhibition at 0.2 µM: 82%

Second part, led by results:

IC50 | % Inh @ 0.5 μM (0.5 µM) [%] | Structure (SMILES) | further results
7 nM | – | COc1ccccc1C1CCCN1C(=O)C(Nc1ccccc1F)c1ccc(Br)cc1 (racemic) [Cpd 90] | inhibition at 0.5 µM: 97%
25 nM | – | O=C(C(Nc1ccccc1F)c1cc2cccnc2s1)N1CCCC1c1ccccc1F (racemic) [Cpd 320] | inhibition at 0.2 µM: 87%
36.2 nM | – | O=C([C@@H](CNc1ccccc1)c1ccc(C(F)(F)F)cc1)N1CCC[C@@H]1c1ccccc1 (relative stereo) [Cpd 130, 3-Phenylamino-1-[(2RS*)2-phenyl-pyrrolidin-1-yl]-(2RS*)-2-(4-trifluoromethyl-phenyl)-propan-1-one] | % Inh @ 0.5 μM: 101%
72.6 nM | – | CC(C)(C)c1ccc(C(Nc2ccccc2)C(=O)N2CCCC2c2ccccc2Cl)cc1 (single isomer, unassigned) [Cpd 2] | % Inh @ 1 μM: 100.93%
17.2 nM | 103.39 | O=C(C(Nc1ccccc1)c1ccc(C(F)(F)F)cc1)N1CCCC1c1ccccc1Cl (single isomer, unassigned) [Cpd 23] | –
110 nM | – | O=C(C(Nc1ccccc1)c1ccc(C(F)(F)F)cc1)N1CCCC1c1ccccc1C(F)(F)F (single isomer, unassigned) [Cpd 30] | inhibition at 0.5 µM: 103%
48.5 nM | 104.03 | O=C(C(Nc1ccccc1)c1ccc(C(F)(F)F)cc1)N1CCCC1c1ccccc1C(F)(F)F (single isomer, unassigned) [Cpd 31] | –
105 nM | – | O=C(C(Nc1ccccc1)c1ccc(C(F)(F)F)cc1)N1CCCC1c1ccccc1F (single isomer, unassigned) [Cpd 45] | inhibition at 0.5 µM: 101%
7.46 nM | 101.53 | O=C(C(Nc1ccccc1)c1ccc(C(F)(F)F)cc1)N1CCCC1c1ccccc1F (single isomer, unassigned) [Cpd 46] | –
41.4 nM | 103.24 | O=C(C(Nc1ccccc1)c1ccc(C(F)(F)F)cc1)N1CCCC1c1ccccc1Cl (single isomer, unassigned) [Cpd 60] | –
20 nM | – | O=C(C(Nc1ccc(F)cc1)c1ccc(C(F)(F)F)cc1)N1CCCC1c1ccccc1 (single isomer, unassigned) [Cpd 75] | inhibition at 0.5 µM: 98%
101 nM | 97 | O=C(C(Nc1ccc(F)cc1)c1ccc(C(F)(F)F)cc1)N1CCCC1c1ccccc1 (single isomer, unassigned) [Cpd 76] | –
20.9 nM | – | O=C(C(Nc1ccccc1F)c1ccc(C(F)(F)F)cc1)N1CCCC1c1cccc(F)c1 (single isomer, unassigned) [Cpd 133] | inhibition at 0.5 µM: 98%
61.3 nM | – | O=C([C@@H](Nc1ccccc1F)c1ccc(C(F)(F)F)cc1)N1CCC[C@H]1c1ccccc1F (single isomer, unassigned) [Cpd 152] | inhibition at 0.5 µM: 101%
104 nM | 97.552 | O=C(C(Nc1ccccc1F)c1ccc(C(F)(F)F)cc1)N1CCCC1c1ccccc1F (single isomer, unassigned) [Cpd 154] | –
5.45 nM | 99 | O=C(C(Nc1c(F)cccc1F)c1ccc(Br)cc1)N1CCCC1c1ccccc1F (single isomer, unassigned) [Cpd 162] | % Inh @ 0.2 μM (0.2 µM): 100%
26 nM | 96 | O=C(C(Nc1cccc(F)c1F)c1ccc(Cl)cc1)N1CCCC1c1ccccc1F (single isomer, unassigned) [Cpd 164] | –
61 nM | 96 | O=C(C(Nc1cccc(F)c1F)c1ccc(Cl)cc1)N1CCCC1c1ccccc1Cl (single isomer, unassigned) [Cpd 166] | –
69 nM | – | COc1ccccc1C1CCCN1C(=O)C(Nc1ccccc1F)c1ccc(Br)cc1 (single isomer, unassigned) [Cpd 175] | inhibition at 0.2 µM: 85%
30 nM | – | COc1ccccc1C1CCCN1C(=O)C(Nc1ccccc1F)c1ccc(Br)cc1 (single isomer, unassigned) [Cpd 176] | % Inh @ 0.2 μM (0.2 µM): 94%
4 nM | – | O=C(C(Nc1ccccc1F)c1ccc(C(F)(F)F)cc1)N1CCCC1c1cccc(F)c1 (single isomer, unassigned) [Cpd 187] | % Inh @ 0.2 μM (0.2 µM): 98%
